{"source": "patent US9808437B2", "about": "“Monounsaturated fatty acid compositions and use for treating atherosclerosis” (BURKE & BOYER NYC, priority 2014, dated 2017)", "origin": "cited, not measured here", "test_system": "ApoE-deficient mice", "settings": "20 mg/kg/day; control 21.9 ± 2.9; P<0.05"}
{"smiles": "CC(C)c1nc(N(C)S(C)(=O)=O)nc(-c2ccc(F)cc2)c1/C=C/[C@@H](O)C[C@@H](O)CC(=O)O", "note": "[Rosuvastatin]", "values": [{"measurement": "Aortic Lesion", "result": "11.9 ± 1.9", "unit": "%"}]}
